# Data: patent publication US7098219B2, “Inhibitors of cellular efflux pumps of microbes” (Wockhart Limited, priority 2000, dated 2006)
# Tested on: Mef Efflux Pump of Streptococcus pneumoniae 3514 and Streptococcus pyogenes 26-00
# Test: Two plate diffusion assay for macrolide (Mef) efflux pump inhibitors, azithromycin plate versus control plate
# Assay type: cell-based
# Details: zone of inhibition in antibiotic plate (method: azithromycin 0.5 mcg/ml; footnote: levofloxacin) minus water control plate; strain not given
row,Compound,Difference in Zone diameter Z1 (mm)
1,"1-Cyclopropyl-6-fluoro-8-methoxy-1,4-dihydro-7-{-4′-(t-butoxycarbonyl (L)-Ala-Ala)amino 3′,3′-dimethylpiperidin-1-yl}-4-oxo-quinoline-3-carboxylic acid [Example 34 (Mef)]",8
2,"CC1CCc2c(N3CC[C@@H](O)[C@H](C)C3)ccc3c(=O)c(C(=O)O)cn1c23 (mixture of isomers) [Example 41 (Mef), (RS)-(±)-6,7-dihydro-8-(trans-4′-hydroxy-3′-methylpiperidin-1-yl)-5-methyl-1-oxo-1H,5H-benzo[i,j]quinolizine-2-carboxylic acid]",10
3,"CC1CCc2c(N3CCC(O)C(C)(C)C3)ccc3c(=O)c(C(=O)O)cn1c23 (racemic) [Example 43 (Mef), (RS)-(±)-6,7-dihydro-8-(4′-hydroxy-3′,3′-dimethylpiperidin-1-yl)-5-methyl-1-oxo-1H,5H-benzo[i,j]quinolizine-2-carboxylic acid]",10
4,"CNC1CCN(c2c(F)c(N)c3c(=O)c(C(=O)O)cn(C4CC4)c3c2OC)CC1(C)C (stereo not shown) [Example 2 (Mef), 5-Amino-1-cyclopropyl-6-fluoro-8-methoxy-1,4-dihydro-7-{4′-(methylamino)-3′,3′-dimethylpiperidin-1-yl}-4-oxo-quinoline-3-carboxylic acid]",8
5,"COc1c(N2CCC(N)C(C)(C)C2)c(F)cc2c(=O)c(C(=O)OC(C)C)cn(C3CC3)c12 (stereo not shown) [Example 3 (Mef), i-Propyl 1-cyclopropyl-6-fluoro-8-methoxy-1,4-dihydro-7-(4′-amino-3′,3′-dimethyl-piperidin-1-yl)-4-oxo-quinoline-3-carboxylate]",11
6,"CCCCOC(=O)c1cn(C2CC2)c2c(OC)c(N3CCC(N)C(C)(C)C3)c(F)cc2c1=O (stereo not shown) [Example 4 (Mef), n-Butyl 1-cyclopropyl-6-fluoro-8-methoxy-1,4-dihydro-7-(4′-amino-3′,3′-dimethyl-piperidin-1-yl)-4-oxo-quinoline-3-carboxylate]",11
7,"CCOC(=O)COC(=O)c1cn(C2CC2)c2c(OC)c(N3CCC(N)C(C)(C)C3)c(F)cc2c1=O (stereo not shown) [Example 5 (Mef), Ethoxycarbony methyl 1-Cyclopropyl-6-fluoro-8-methoxy-1,4-dihydro-7-(4′-amino-3′,3′-dimethylpiperidin-1-yl)-4-oxo-quinoline-3-carboxylate]",13
8,COc1c(N2CCC(NC(=O)OC(C)(C)C)C(C)(C)C2)c(F)cc2c(=O)c(C(=O)OCc3ccccc3)cn(C3CC3)c12 (stereo not shown) [Example 6 (Mef)],13
9,"COc1c(N2CCC(NC(=O)[C@H](C)NC(=O)OC(C)(C)C)C(C)(C)C2)c(F)cc2c(=O)c(C(=O)O)cn(C3CC3)c12.Cl (stereo partly drawn) [Example 7 (Mef), 1-Cyclopropyl-6-fluoro-8-methoxy-1,4-dihydro-7-{4′-N-(t-butoxycarbonyl-L-alanyl)-amino-3′,3′-dimethylpiperidin-1-yl}-4-oxo-quinoline-3-carboxylic acid hydrochloride]",7
10,"COc1c(N2CCC(NC(=O)[C@H](C)N)C(C)(C)C2)c(F)cc2c(=O)c(C(=O)O)cn(C3CC3)c12.Cl (stereo partly shown) [Example 8 (Mef), 1-Cyclopropyl-6-fluoro-8-methoxy-1,4-dihydro-7-(4′-(L)-alaninylamino-3′,3′-dimethylpiperidin-1-yl)-4-oxo-quinoline-3-carboxylic acid hydrochloride]",10
11,"COc1c(N2CCC(NC(=O)[C@@H](NC(=O)OC(C)(C)C)C(C)C)C(C)(C)C2)c(F)cc2c(=O)c(C(=O)O)cn(C3CC3)c12 (stereo partly drawn) [Example 9 (Mef), 1-Cyclopropyl-6-fluoro-8-methoxy-1,4-dihydro-7-(3′,3′-dimethyl-4′-N-(t-butoxycarbonyl-L-valyl)-aminopiperidin-1-yl}-4-oxo-quinoline-3-carboxylic acid]",5
12,"COc1c(N2CCC(NC(=O)[C@@H](N)C(C)C)C(C)(C)C2)c(F)cc2c(=O)c(C(=O)O)cn(C3CC3)c12.Cl (stereo partly drawn) [Example 10 (Mef), 1-Cyclopropyl-6-fluoro-8-methoxy-1,4-dihydro-7-(3′,3′-dimethyl-4′-L-valinylaminopiperidin-1-yl}-4-oxo-quinoline-3-carboxylic acid hydrochloride]",8
13,"COc1c(N2CCC(NC(=O)[C@@H](N)CC(=O)O)C(C)(C)C2)c(F)cc2c(=O)c(C(=O)O)cn(C3CC3)c12.Cl (stereo partly shown) [Example 11 (Mef), 1-Cyclopropyl-6-fluoro-8-methoxy-1,4-dihydro-7-(4′-(L)-aspartylamino-3′,3′-dimethylpiperidin-1-yl}-4-oxo-quinoline-3-carboxylic acid hydrochloride]",6
14,"CCNC1CCN(c2c(F)cc3c(=O)c(C(=O)O)cn(CC)c3c2F)CC1 [Example 12 (Mef), 1-Ethyl-6,8-difluoro-1,4-dihydro-7-(4′-ethylaminouiperidin-1′-yl)-4-oxo-quinoline-3-carboxylic acid]",18
15,"CC1CN(c2c(F)c(N)c3c(=O)c(C(=O)O)cn(C4CC4)c3c2F)CCC1N (stereo not shown) [Example 13 (Mef), 5-Amino-1-cyclopropyl-6,8-difluoro-1,4-dihydro-7-(4′-amino-3′-methylpiperidin-1-yl)-4-oxo-quinoline-3-carboxylic acid]",20
16,"Nc1c(F)c(NC2CN3CCC2CC3)c(F)c2c1c(=O)c(C(=O)O)cn2C1CC1 (stereo not shown) [Example 14 (Mef), 5-Amino-1-cyclopropyl-6,8-difluoro-1,4-dihydro-7-(3′-quinuclidinyl-3′-yl-amino)-4-oxo-quinoline-3-carboxylic acid]",8
17,"Nc1c(F)c(C2(N)C3CN(Cc4ccccc4)CC32)c(F)c2c1c(=O)c(C(=O)O)cn2C1CC1 (stereo not shown) [Example 15 (Mef), 5-Amino-1-cyclopropyl-6,8-difluoro-1,4-dihydro-7-{(1∝,5∝,6∝)-6-amino-N-benzyl-3-azabicyclo[3.1.0]hex-6-yl}-4-oxo-quinoline-3-carboxylic acid]",14
18,"CN1CCN(c2cc3c(cc2F)c(=O)c(C(=O)O)cn3-c2cccc(F)c2)CC1 [Example 16 (Mef), 1-(3′-Fluorophenyl)-6-fluoro-1,4-dihydro-7-(4′-methylpiperazin-1′-yl)-4-oxo-quinoline-3-carboxylic acid]",10
19,"CCNC1CCN(c2cc3c(cc2F)c(=O)c(C(=O)O)cn3-c2ccc(F)cc2F)CC1 [Example 17 (Mef), 1-(2′,4′-Difluorophenyl)-6-fluoro-1,4-dihydro-7-(4′-ethylaminopiperidin-1′-yl)-4-oxo-quinoline-3-carboxylic acid]",9

# Tested on: Staphylococcus aureus 1199 B NorA+
# Test: not given
# Assay type: cell-based
# Details: combination with ciprofloxacin, broth microdilution checkerboard, 35° C. 20 hours; FIC index ≦0.5 synergistic, 0.5–2.0 additive, >2.0 antagonistic
# Source text: Testing method for inhibition of the efflux pump of Staphylococcus aureus 1199B NorA^+
# […]. Victor Lorian, Md., Fourth edition 1996, pp 333–338).
# In short, the assay involves broth microdilution method performed as recommended by the National Committee for Clinical Laboratory Standards (NCCLS) 1997 (Methods for Dilution of Antimicrobial Susceptibility Tests for Bacteria that Grow Aerobically, Fourth edition; Approved Standard, NCCLS document M7-A4, vol. 17, No. 2). The test organism used for the assay is Staphylococcus aureus 1199 B NorA^+.
# […]. Stock solutions of the efflux pump inhibitors tested are prepared in dimethyl sulfoxide (DMSO) at a final concentration of 5 mg/ml. Stock solutions are further diluted in Mueller Hinton Broth as per the need of the assay. Ciprofloxacin is dissolved in water.
# The checkerboard assay is performed in microtiter plates. […] The efflux pump inhibitor is diluted in the Y-axis, each row containing an equal concentration of efflux pump inhibitor. The result of these manipulations is that each well of the microtiter plate contains a unique combination of concentrations of the two agents. Bacterial inoculum is added at 5×10^5 CFU/ml. Microtiter plates are incubated at 35° C. for 20 hours. Reading is done by visibly noting turbidity and confirmed using a microtiter plate reader (Molecular Devices). The FIC index is calculated as
# (A) is the concentration of the experimental efflux pump inhibitor in the well that is the lowest inhibitory concentration in the Y-axis. (MICA) is the MIC of Staphylococcus aureus to experimental efflux pump inhibitor alone. FICA is the fractional inhibitory concentration of an experimental efflux pump inhibitor. […] (Antimicrobial Combination In Antibiotics in Laboratory Medicine, Ed. Victor Lorian, Md., Fourth edition 1996, pp 333–338).
row,Compound,FIC INDEX
1,"C[C@H]1CCc2c(N3CCC(C(N)=O)CC3)c(F)cc3c(=O)c(C(=O)O)cn1c23 [Example 53 (NorA), (S)-(−)-9-Fluoro-6,7-dihydro-8-(4′-carboxamidopineridin-1-yl)-5-methyl-1-oxo-1H,5H-benzo[i,j]quinolizine-2-carboxylic acid]",0.192
2,"C[C@H]1CCc2c(N3CCC(O)C(C)(C)C3)c(F)cc3c(=O)c(C(=O)O)cn1c23 (stereo partly drawn) [Example 55 (NorA), S-(−)-9-Fluoro-6,7-dihydro-8-(4′-hydroxy-3′,3′-dimethylpiperidin-1-yl)-5-methyl-1-oxo-1H,5H-benzo[i,j]quinolizine-2-carboxylic acid]",0.378
3,"C[C@H]1CCc2c(N3CCC(O)CC3)c(F)cc3c(=O)c(C(=O)OC4CCN(C)CC4)cn1c23 [Example 56 (NorA), (S)-(−)-N-methylpiperidino-9-fluoro-6,7-dihydro-8-(4′-hydroxypiperidin-1-yl)-5-methyl-1-oxo-1H,5H-benzo[i,j]quinolizine-2-carboxylic acid]",0.180
4,"CCOC(=O)COC(=O)c1cn2c3c(c(N4CCC(O)CC4)c(F)cc3c1=O)CC[C@H]2C [Example 57 (NorA), Ethoxy carbonylmethyl (R)-(+)-9-fluoro-6,7-dihydro-8-(4′-hydroxypiperidin-1-yl)-5-methyl-1-oxo-1H,5H-benzo[i,j]quinolizine-2-carboyxlate]",0.400
5,"(S)-(−)-9-Fluoro-6,7-dihydro-8-(4′-hydroxypiperidin-1-yl)-5-methyl-1-oxo-1H,5H-benzo[i,j]quinolizine-2-carboxylic acid L-aryinine salt [Example 54 (NorA)]",0.314
6,"N-3-azabycyclo{7-(1-(2,4-difluorophenyl)-6-fluoro-1,4-dihydro-4-oxo-1,8-naphthyridine-3-carboxylic acid)}-[1∝,5∝,6∝]-N-6-amino-{7-1-(2,4-difluorophenyl)-6-fluoro-1,4-dihydro-4-oxo-1,8-naphthyridine-3-carboxylic acid)}-3.1.0]hexane [Bis compound 9]",0.314
